Species: Homo sapiens
Test: In vitro for its inhibitory activity against platelet aggregation induced by ADP
Format: functional

Structure (SMILES)	IC50 [µM]
N=C(N)Nc1ccc(C(=O)NCCC(=O)N[C@@H](CC(=O)O)C(=O)N[C@H](CC2CCCCC2)C(=O)O)cc1	0.088
N=C(N)NCc1ccc(C(=O)NCCC(=O)N[C@@H](CC(=O)O)C(=O)N[C@H](Cc2c[nH]c3ccccc23)C(=O)O)cc1	0.71
N=C(N)Nc1ccc(C(=O)NCCC(=O)N[C@@H](CC(=O)O)C(=O)N[C@H](Cc2ccc(O)cc2)C(=O)O)cc1	0.19
N=C(N)c1ccc(C(=O)NCCC(=O)N[C@@H](CC(=O)O)C(=O)N[C@@H](Cc2ccc(O)cc2)C(=O)O)cc1	1.2
N=C(N)Nc1ccc(C(=O)NCCC(=O)N[C@@H](CC(=O)O)C(=O)N[C@H](Cc2ccc(F)cc2)C(=O)O)cc1	1.7
N=C(N)Nc1ccc(C(=O)NCCCC(=O)N[C@@H](CC(=O)O)C(=O)N[C@H](Cc2c[nH]c3ccccc23)C(=O)O)cc1	> 50
N=C(N)c1ccc(C(=O)NCCC(=O)N[C@@H](CC(=O)O)C(=O)N[C@H](Cc2ccc3ccccc3c2)C(=O)O)cc1	0.044
N=C(N)Nc1ccc(C(=O)NCC(=O)N[C@@H](CC(=O)O)C(=O)N[C@H](Cc2c[nH]c3ccccc23)C(=O)O)cc1	0.6
N=C(N)Nc1ccc(C(=O)NCCC(=O)N[C@@H](CC(=O)O)C(=O)N[C@H](Cc2cccc3ccccc23)C(=O)O)cc1	0.77
N=C(N)Nc1ccc(C(=O)NCCC(=O)N[C@@H](CC(=O)O)C(=O)N[C@H](Cc2ccc3ccccc3c2)C(=O)O)cc1	0.32
N=C(N)Nc1ccc(C(=O)NCCC(=O)N[C@@H](CC(=O)O)C(=O)N[C@@H](C(=O)O)c2ccccc2)cc1	2.9
N=C(N)Nc1ccc(C(=O)NCCC(=O)N[C@@H](CC(=O)O)C(=O)N[C@H](Cc2ccccc2)C(=O)O)cc1	0.39
N=C(N)c1ccc(C(=O)NCCC(=O)N[C@@H](CC(=O)O)C(=O)N[C@H](Cc2c[nH]c3ccccc23)C(=O)O)cc1 (single isomer, unassigned)	0.026
N=C(N)Nc1ccc(C(=O)NCCC(=O)N[C@@H](CC(=O)O)C(=O)N[C@H](Cc2c[nH]c3ccccc23)C(=O)O)cc1	0.07
N=C(N)c1ccc(C(=O)NCCC(=O)N[C@@H](CC(=O)O)C(=O)NC(Cc2ccc(F)cc2)C(=O)O)cc1 (single isomer, unassigned)	0.047
N=C(N)Nc1ccc(C(=O)NC(Cc2ccc(O)cc2)C(=O)N[C@@H](CC(=O)O)C(=O)N[C@H](Cc2c[nH]c3ccccc23)C(=O)O)cc1 (some centres undefined)	> 50
N=C(N)c1ccc(C(=O)NCCC(=O)N[C@@H](CC(=O)O)C(=O)NC(Cc2ccc(O)cc2)C(=O)O)cc1 (single isomer, unassigned)	0.02
N=C(N)c1ccc(C(=O)NCCCC(=O)N[C@@H](CC(=O)O)C(=O)N[C@H](Cc2c[nH]c3ccccc23)C(=O)O)cc1	> 50
N=C(N)Nc1ccc(C(=O)NCCC(=O)N[C@@H](CC(=O)O)C(=O)N[C@@H](Cc2ccccc2)C(=O)O)cc1	6.1
N=C(N)Nc1ccc(C(=O)N2CCC(C(=O)N[C@@H](CC(=O)O)C(=O)N[C@H](Cc3c[nH]c4ccccc34)C(=O)O)CC2)cc1	4.6

Molecular target: not listed separately
Test: Displacement of [3H]SKF-107260 from […] integrin
Design: species or system Homo sapiens

Structure (SMILES)	Ki [µM]
N=C(N)c1ccc(C(=O)NCCC(=O)N[C@@H](CC(=O)O)C(=O)N[C@H](Cc2c[nH]c3ccccc23)C(=O)O)cc1 (single isomer, unassigned)	35
N=C(N)c1ccc(C(=O)NCCC(=O)N[C@@H](CC(=O)O)C(=O)NC(Cc2ccc(O)cc2)C(=O)O)cc1 (single isomer, unassigned)	75

Molecular target: Integrin alpha-IIb/beta-3 (Homo sapiens, UniProt P05106+P08514)
Sequence (P05106 27-788 limits assumed): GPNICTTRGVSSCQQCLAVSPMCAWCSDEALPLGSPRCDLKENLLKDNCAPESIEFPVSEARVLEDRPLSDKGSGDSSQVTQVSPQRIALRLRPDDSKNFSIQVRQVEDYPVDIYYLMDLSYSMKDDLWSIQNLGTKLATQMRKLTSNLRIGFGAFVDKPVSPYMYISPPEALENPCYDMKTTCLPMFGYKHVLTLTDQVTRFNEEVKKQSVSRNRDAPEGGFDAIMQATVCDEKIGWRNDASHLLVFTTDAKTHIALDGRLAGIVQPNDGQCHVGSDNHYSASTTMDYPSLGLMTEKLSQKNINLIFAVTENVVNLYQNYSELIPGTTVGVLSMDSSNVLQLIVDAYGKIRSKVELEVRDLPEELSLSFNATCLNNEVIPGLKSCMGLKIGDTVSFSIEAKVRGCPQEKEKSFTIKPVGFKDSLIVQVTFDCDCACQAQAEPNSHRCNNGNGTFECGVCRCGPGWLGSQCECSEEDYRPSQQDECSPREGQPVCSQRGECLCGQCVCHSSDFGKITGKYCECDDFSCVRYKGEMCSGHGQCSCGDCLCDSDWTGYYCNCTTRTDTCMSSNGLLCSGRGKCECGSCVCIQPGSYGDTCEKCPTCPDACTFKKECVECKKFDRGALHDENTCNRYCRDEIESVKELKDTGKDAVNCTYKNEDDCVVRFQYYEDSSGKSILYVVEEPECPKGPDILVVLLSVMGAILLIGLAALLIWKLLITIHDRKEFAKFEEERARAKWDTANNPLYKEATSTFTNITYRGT
Sequence (P08514 32-887 limits assumed): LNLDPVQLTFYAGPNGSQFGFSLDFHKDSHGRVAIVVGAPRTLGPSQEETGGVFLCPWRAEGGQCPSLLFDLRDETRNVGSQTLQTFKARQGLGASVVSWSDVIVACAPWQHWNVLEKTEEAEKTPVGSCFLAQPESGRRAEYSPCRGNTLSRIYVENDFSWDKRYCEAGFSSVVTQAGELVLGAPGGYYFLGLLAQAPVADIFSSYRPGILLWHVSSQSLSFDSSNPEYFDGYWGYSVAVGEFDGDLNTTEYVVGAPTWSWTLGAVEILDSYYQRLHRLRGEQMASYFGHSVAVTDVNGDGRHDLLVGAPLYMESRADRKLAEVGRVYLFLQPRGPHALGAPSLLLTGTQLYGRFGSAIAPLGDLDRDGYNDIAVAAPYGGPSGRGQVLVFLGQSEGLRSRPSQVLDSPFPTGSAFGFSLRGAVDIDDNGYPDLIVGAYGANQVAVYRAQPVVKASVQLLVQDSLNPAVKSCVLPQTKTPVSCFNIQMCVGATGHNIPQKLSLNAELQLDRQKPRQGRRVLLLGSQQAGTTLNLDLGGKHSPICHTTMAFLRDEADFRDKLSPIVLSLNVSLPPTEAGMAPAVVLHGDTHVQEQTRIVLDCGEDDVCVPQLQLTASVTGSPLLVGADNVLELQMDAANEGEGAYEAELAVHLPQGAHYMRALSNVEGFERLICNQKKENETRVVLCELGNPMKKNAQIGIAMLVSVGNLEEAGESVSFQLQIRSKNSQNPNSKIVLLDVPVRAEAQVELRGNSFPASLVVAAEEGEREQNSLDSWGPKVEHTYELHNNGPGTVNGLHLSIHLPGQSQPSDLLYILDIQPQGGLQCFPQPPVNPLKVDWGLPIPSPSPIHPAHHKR
Sequence (P08514 891-1039 limits assumed): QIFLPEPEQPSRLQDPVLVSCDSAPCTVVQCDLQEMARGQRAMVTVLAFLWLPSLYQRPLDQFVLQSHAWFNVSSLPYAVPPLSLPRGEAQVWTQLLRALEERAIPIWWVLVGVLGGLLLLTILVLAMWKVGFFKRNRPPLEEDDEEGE
Test: Displacement of [3H]SKF-107260 from alpha IIb beta3 integrin
Format: protein-complex assay

Structure (SMILES)	Ki [µM]
N=C(N)c1ccc(C(=O)NCCC(=O)N[C@@H](CC(=O)O)C(=O)N[C@H](Cc2c[nH]c3ccccc23)C(=O)O)cc1 (single isomer, unassigned)	0.0023
N=C(N)c1ccc(C(=O)NCCC(=O)N[C@@H](CC(=O)O)C(=O)NC(Cc2ccc(O)cc2)C(=O)O)cc1 (single isomer, unassigned)	0.0021

— ChEMBL document CHEMBL1151085, “Design, synthesis and SAR of RGD peptide hybrids as highly efficient inhibitors of platelet aggregation” (Bioorg Med Chem Lett, 1995)
